From ChEMBL document CHEMBL1201862, “PubChem BioAssay data set” (2004)
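How tested: cells in 96-well plates exposed to compound for 48 hours at five concentrations. GI50 is the concentration that inhibits growth by half.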 Calls of active or inactive are those of the source. No stated cut-off is given here; in the data, active = GI50 up to about 1.1 µM and inactive = higher.

Experiments:
Test in all cases: inhibition of tumour cell growth, NCI panel, 48 h
HCT-15 = test system: HCT-15
K562 = test system: K562
A498 = test system: A498
RPMI-8226 = test system: RPMI-8226
SK-MEL-5 = test system: SK-MEL-5
SNB-75 = test system: SNB-75
NCI-H23 = test system: NCI-H23
OVCAR-5 = test system: OVCAR-5
SK-MEL-28 = test system: SK-MEL-28
UO-31 = test system: UO-31
RXF 393 = test system: RXF 393
TK-10 = test system: TK-10
Malme-3M = test system: Malme-3M
SNB-19 = test system: SNB-19
LOX IMVI = test system: LOX IMVI
COLO 205 = test system: COLO 205
SF-268 = test system: SF-268
NCI-H522 = test system: NCI-H522

## O=C1CC(c2c[nH]c3ccccc23)C(=O)N1c1ccccc1 (configuration not stated)
HCT-15
  GI50: > 100 µM
K562
  GI50: > 100 µM (inactive)
A498
  GI50: > 100 µM (inactive)
RPMI-8226
  GI50: > 100 µM (inactive)
SK-MEL-5
  GI50: > 100 µM (inactive)
SNB-75
  GI50: > 100 µM (inactive)
NCI-H23
  GI50: > 100 µM (inactive)
OVCAR-5
  GI50: > 100 µM (inactive)
SK-MEL-28
  GI50: > 100 µM (inactive)
UO-31
  GI50: 83.6 µM (inactive)
RXF 393
  GI50: > 100 µM (inactive)
TK-10
  GI50: > 100 µM (inactive)
Malme-3M
  GI50: > 100 µM (inactive)

## O=C(c1nc2ccccc2nc1O)C(O)c1ccco1 (configuration not stated)
HCT-15
  GI50: 51.8 µM
K562
  GI50: > 100 µM (inactive)
SNB-19
  GI50: > 100 µM (inactive)
RPMI-8226
  GI50: > 100 µM (inactive)
SK-MEL-5
  GI50: 64.1 µM (inactive)
SNB-75
  GI50: 45.8 µM (inactive)
NCI-H23
  GI50: > 100 µM (inactive)
LOX IMVI
  GI50: > 100 µM (inactive)
COLO 205
  GI50: > 100 µM (inactive)
OVCAR-5
  GI50: > 100 µM (inactive)
SK-MEL-28
  GI50: > 100 µM (inactive)
UO-31
  GI50: 72.3 µM (inactive)
SF-268
  GI50: > 100 µM (inactive)
RXF 393
  GI50: > 100 µM (inactive)
TK-10
  GI50: > 100 µM (inactive)
NCI-H522
  GI50: 25.9 µM (inactive)
Malme-3M
  GI50: > 100 µM (inactive)

## N#CCCN(c1ccc(-c2nnc(NC(=O)CNNC(=O)CC(=O)Nc3ccccc3)s2)cc1)S(=O)(=O)c1ccccc1
HCT-15
  GI50: > 100 µM
K562
  GI50: 49.2 µM (inactive)
SNB-19
  GI50: > 100 µM (inactive)
A498
  GI50: > 100 µM (inactive)
RPMI-8226
  GI50: > 100 µM (inactive)
SK-MEL-5
  GI50: 52.1 µM (inactive)
SNB-75
  GI50: 29 µM (inactive)
NCI-H23
  GI50: 76.6 µM (inactive)
LOX IMVI
  GI50: > 100 µM (inactive)
COLO 205
  GI50: > 100 µM (inactive)
OVCAR-5
  GI50: > 100 µM (inactive)
SK-MEL-28
  GI50: > 100 µM (inactive)
UO-31
  GI50: 46.3 µM (inactive)
SF-268
  GI50: > 100 µM (inactive)
TK-10
  GI50: > 100 µM (inactive)
NCI-H522
  GI50: 42.1 µM (inactive)
Malme-3M
  GI50: > 100 µM (inactive)

## COc1ccc2c3c([nH]c2c1CC=C(C)C)C(=O)C=C(C)C3=O
HCT-15
  GI50: > 25 µM
K562
  GI50: > 25 µM (inactive)
SNB-19
  GI50: > 25 µM (inactive)
RPMI-8226
  GI50: > 25 µM (inactive)
SK-MEL-5
  GI50: > 25 µM (inactive)
SNB-75
  GI50: 14.4 µM (inactive)
NCI-H23
  GI50: > 25 µM (inactive)
COLO 205
  GI50: > 25 µM (inactive)
OVCAR-5
  GI50: > 25 µM (inactive)
SK-MEL-28
  GI50: > 25 µM (inactive)
UO-31
  GI50: > 25 µM (inactive)
SF-268
  GI50: 12.3 µM (inactive)
RXF 393
  GI50: > 25 µM (inactive)
TK-10
  GI50: > 25 µM (inactive)
NCI-H522
  GI50: 11.8 µM (inactive)
Malme-3M
  GI50: 16.1 µM (inactive)

## C=CCN1C2Cc3cc(OC)c(OC)cc3C1Cc1cc(OC)c(OC)cc12
HCT-15
  GI50: > 100 µM
K562
  GI50: > 100 µM (inactive)
SNB-19
  GI50: > 100 µM (inactive)
A498
  GI50: > 100 µM (inactive)
RPMI-8226
  GI50: > 100 µM (inactive)
SK-MEL-5
  GI50: > 100 µM (inactive)
SNB-75
  GI50: > 100 µM (inactive)
NCI-H23
  GI50: 78.9 µM (inactive)
OVCAR-5
  GI50: > 100 µM (inactive)
SK-MEL-28
  GI50: > 100 µM (inactive)
UO-31
  GI50: 64 µM (inactive)
SF-268
  GI50: > 100 µM (inactive)
TK-10
  GI50: > 100 µM (inactive)
NCI-H522
  GI50: > 100 µM (inactive)
Malme-3M
  GI50: > 100 µM (inactive)

## Cc1nc(-n2nc(-c3ccccc3)cc2-c2ccccc2)sc1C(=O)/C=C/c1ccc(/C=C/C(=O)c2sc(-n3nc(-c4ccccc4)cc3-c3ccccc3)nc2C)cc1
HCT-15
  GI50: 34.3 µM
K562
  GI50: 30.3 µM (inactive)
SNB-19
  GI50: 21.8 µM (inactive)
NCI-H23
  GI50: 19.1 µM (inactive)
LOX IMVI
  GI50: 20 µM (inactive)
COLO 205
  GI50: 20.2 µM (inactive)
OVCAR-5
  GI50: 25.5 µM (inactive)
SK-MEL-28
  GI50: 19.5 µM (inactive)
UO-31
  GI50: 20.1 µM (inactive)
SF-268
  GI50: 23.2 µM (inactive)
RXF 393
  GI50: 22.8 µM (inactive)
TK-10
  GI50: 34.1 µM (inactive)
NCI-H522
  GI50: 17.8 µM (inactive)
Malme-3M
  GI50: 19.1 µM (inactive)

## O=C1NC2(O)c3ccccc3C(=O)C2(O)N1c1ccccc1 (configuration not stated)
HCT-15
  GI50: > 100 µM
K562
  GI50: > 100 µM (inactive)
SNB-19
  GI50: > 100 µM (inactive)
RPMI-8226
  GI50: > 100 µM (inactive)
SNB-75
  GI50: > 100 µM (inactive)
NCI-H23
  GI50: > 100 µM (inactive)
LOX IMVI
  GI50: > 100 µM (inactive)
COLO 205
  GI50: > 100 µM (inactive)
OVCAR-5
  GI50: > 100 µM (inactive)
SK-MEL-28
  GI50: > 100 µM (inactive)
UO-31
  GI50: > 100 µM (inactive)
SF-268
  GI50: > 100 µM (inactive)
TK-10
  GI50: > 100 µM (inactive)
NCI-H522
  GI50: > 100 µM (inactive)
Malme-3M
  GI50: > 100 µM (inactive)
